The text below walks through data of ChEMBL document CHEMBL1158751, “Isoneocryptolepine, a synthetic indoloquinoline alkaloid, as an antiplasmodial lead compound” (J Nat Prod, 2005).

Structures can show the parent of a compound that is named as a salt.

As a reminder, the IC50 is the concentration at which inhibition is half-maximal.

The subject of series [1] is Trypanosoma brucei rhodesiense. The series is described as follows: Antitrypanosomal activity against Trypanosoma brucei rhodesiense. The class given is functional, organism-based.
Series [2] is described as follows: Displacement of methyl green dye from DNA.
In another series the test system is L6. The experiment in a line: Cytotoxicity against rat L6 cells. The class given is cell-based.
The nature of series [3]: Selectivity index, IC50 for rat L6 cells to IC50 for chloroquine and pyrimethamine-resistant Plasmodium falciparum K1. Format: functional.
A further series deals with Plasmodium berghei. The series is described as follows: Antiplasmodial activity against Plasmodium berghei ANKA S infected NMRI mice (Mus musculus) as reduced parasitaemia at 50 mg/kg subcutaneous dose for 4 days. The class given is functional. Further details: scale not given: the % may be the effect or the level left.
For the next series, the system named is Trypanosoma cruzi. The experiment in a line: Antitrypanosomal activity against Trypanosoma cruzi. The class given is functional, organism-based.
The subject of another series is Leishmania donovani. The experiment in a line: Antileishmanial activity against Leishmania donovani. Format: functional, organism-based.
A further series has as its system Mus musculus. The series is described as follows: Toxicity in Plasmodium berghei ANKA S infected NMRI mice (Mus musculus) assessed as death at 50 mg/kg, intraperitoneally twice a day after day 1 post-infection. The class given is organism-based. Further details: dose 50 mg/kg, route intraperitoneal. The conditions noted are these: in vivo, ip.
Another series has as its system Plasmodium falciparum. The experiment in a line: microbe, parasite or virus in culture. Particulars: K1, 3 h.

In series [1], `Nc1nc(N)nc(Nc2ccc([As]3SCC(CO)S3)cc2)n1` (centres undefined) [MELARSOPROL] came in with an IC50 of 0.0038 µg/mL.

As to `C[n+]1cc2[nH]c3ccccc3c2c2ccccc21.[Cl-]` [ISONEOCRYPTOLEPINE HYDROCHLORIDE], the figures for the IC50 (in series [2]; in the series with L6) were 124 µM and 4.32 µM, respectively. In addition, in [3], the “Ratio IC50” value was found to be 20. In addition, the Activity with Plasmodium berghei was determined as 10.3%.

In the case of `Cn1c2nc3ccccc3c-2cc2ccccc21` [NEOCRYPTOLEPINE HYDROCHLORIDE], the 50% inhibitory concentration (IC50) in series [2] came out at 93 µM; in the series with L6, 3.24 µM.

Take `C[n+]1c2ccccc2cc2[n-]c3ccccc3c21` [CRYPTOLEPINE HYDROCHLORIDE]: the results for the half-maximal inhibitory concentration (IC50) (in [2]; with L6) were 65 µM and 1.12 µM, respectively.

Consider `Cn1c2c3ccccc3nc-2c(-n2c3ccccc3c3nc4ccccc4cc32)c2ccccc21`, for which the IC50 in series [1] is 96.4 µM; with Trypanosoma cruzi, 84.4 µM; in the series on Leishmania donovani it was greater than 65 µM; in the series with L6 it was 165 µM.

Take `Cn1c2ccccc2c2c[n+](C)c3ccccc3c21.[I-]`: the Activity result is “Toxic” in the series with Mus musculus and 38.9% with Plasmodium berghei. Moreover, the 50% inhibitory concentration (IC50) is 0.37 µM in [1]; 236 µM with Trypanosoma cruzi; 1.15 µM with Leishmania donovani; 12.7 µM with L6; 0.017 µM with Plasmodium falciparum. For the same compound, in series [3], the “Ratio IC50” value is given as greater than 700.

As for `CCCCCCCCCCCCCCCCOP(=O)([O-])OCC[N+](C)(C)C` [MILTEFOSINE], the IC50 in the series with Leishmania donovani was determined as 0.56 µg/mL.

`C=C[C@H]1CN2CC[C@H]1C[C@H]2[C@H](O)c1ccnc2ccc(OC)cc12` [QUININE] registered an IC50 in series [2] greater than 360 µM.

In turn, `COc1cc([C@@H]2c3cc4c(cc3[C@H](O)[C@H]3COC(=O)[C@H]23)OCO4)cc(OC)c1OC` [PODOFILOX] had an IC50 in the series with L6 of 0.018 µg/mL.

Take `CCN(CC)CCCC(C)Nc1ccnc2cc(Cl)ccc12` (centres undefined) [CHLOROQUINE]: the Activity in the series with Plasmodium berghei was 99.9%.

As to `C[C@@H]1CC[C@H]2[C@@H](C)C(=O)O[C@@H]3O[C@@]4(C)CC[C@@H]1[C@]32OO4` [ARTEMISININ], the IC50 with Plasmodium falciparum worked out at 0.042 µg/mL.

Regarding `Cn1cc2c3ccccc3nc-2c2ccccc21` [ISOCRYPTOLEPINE HYDROCHLORIDE], the IC50 is 119 µM in [2] and 1.19 µM with L6.

In the series on Trypanosoma cruzi, `O=C(Cn1ccnc1[N+](=O)[O-])NCc1ccccc1` [BENZNIDAZOLE] had an IC50 of 1.5 µg/mL.

With `Cn1c2c3ccccc3nc-2c(-c2c3nc4ccccc4c-3n(C)c3ccccc23)c2ccccc21` [BISCRYPTOLEPINE], the IC50 in series [1] is 2.57 µM; with Trypanosoma cruzi, 3.48 µM; with Leishmania donovani, 8.93 µM; in the series with L6 it was 13.6 µM; in the series with Plasmodium falciparum, 0.27 µM.
